Test system: foxtail, giant (giant foxtail, Setaria faberii)
Assay: Test A preemergence, giant foxtail
Assay type: in vivo
Settings: 125 g ai/ha, visual rating after approx. 10 d, 0 to 100 scale, 0 no effect, 100 complete control
From the text: (§1) Seeds of plant species selected from barnyardgrass (Echinochloa crus-galli), crabgrass (large crabgrass, Digitaria sanguinalis), kochia (Kochia scoparia), ragweed (common ragweed, Ambrosia elatior), morningglory (Ipomoea spp.), velvetleaf (Abutilon theophrasti), ryegrass, Italian (Italian ryegrass, Lolium multiflorum), foxtail, giant (giant foxtail, Setaria faberii), wheat (Triticum aestivum), corn (Zea mays), and pigweed (Amaranthus retroflexus), were planted into a blend of loam soil and sand and treated preemergence with a directed soil spray using test chemicals formulated in a non-phytotoxic solvent mixture which included a surfactant. At the same time, plants selected from these crop and weed species and also blackgrass (Alopecurus myosuroides), and galium (catchweed bedstraw, Galium aparine), were planted in pots containing the same blend of loam soil and sand and treated with postemergence applications of test chemicals formulated in the same manner. Plants ranged in height from 2 to 10 cm and were in the one- to two-leaf stage for the postemergence treatment. Treated plants and untreated controls were maintained in a greenhouse for approximately 10 d, after which time all treated plants were compared to untreated controls and visually evaluated for injury. Plant response ratings, summarized in Table A, are based on a 0 to 100 scale where 0 is no effect and 100 is complete control. A dash (-) response means no test result.

Compound	Plant response rating, Foxtail, Giant
O=C(Nc1cccc(F)c1C(F)(F)F)C1C(=O)OCC1c1ccc(F)c(C(F)(F)F)c1 (racemic) [Compound 18]	0

Same assay, conditions: 500 g ai/ha, visual rating after approx. 10 d, 0 to 100 scale, 0 no effect, 100 complete control

Compound	Plant response rating, Foxtail, Giant
O=C(Nc1cccc(F)c1C(F)(F)F)C1C(=O)OCC1c1ccc(F)c(C(F)(F)F)c1 (racemic) [Compound 18]	40

Test system: barnyardgrass (Echinochloa crus-galli)
Assay: Test A preemergence, barnyardgrass
Assay type: in vivo
Settings: 125 g ai/ha, visual rating after approx. 10 d, 0 to 100 scale, 0 no effect, 100 complete control
From the text: as §1

Compound	Plant response rating, Barnyardgrass
O=C(Nc1cccc(F)c1C(F)(F)F)C1C(=O)OCC1c1ccc(F)c(C(F)(F)F)c1 (racemic) [Compound 18]	0

Same assay, conditions: 500 g ai/ha, visual rating after approx. 10 d, 0 to 100 scale, 0 no effect, 100 complete control

Compound	Plant response rating, Barnyardgrass
O=C(Nc1cccc(F)c1C(F)(F)F)C1C(=O)OCC1c1ccc(F)c(C(F)(F)F)c1 (racemic) [Compound 18]	0

Test system: rice (Oryza sativa)
Assay: Test B flooded paddy test, rice
Assay type: in vivo
Settings: 500 g ai/ha; applied to paddy water at 2-leaf stage; 13 to 15 d; scale 0 no effect to 100 complete control
Experimental: (§2) Plant species in the flooded paddy test selected from rice (Oryza sativa), sedge, umbrella (small-flower umbrella sedge, Cyperus difformis), ducksalad (Heteranthera limosa), and barnyardgrass (Echinochloa crus-galli) were grown to the 2-leaf stage for testing. At time of treatment, test pots were flooded to 3 cm above the soil surface, treated by application of test compounds directly to the paddy water, and then maintained at that water depth for the duration of the test. Treated plants and controls were maintained in a greenhouse for 13 to 15 d, after which time all species were compared to controls and visually evaluated. Plant response ratings, summarized in Table B, are based on a scale of 0 to 100 where 0 is no effect and 100 is complete control. A dash (-) response means no test result.

Compound	Plant response rating, Flood, Rice
O=C(Nc1cccc(F)c1C(F)(F)F)C1C(=O)OCC1c1ccc(F)c(C(F)(F)F)c1 (racemic) [Compound 18]	0

Test system: ragweed (common ragweed, Ambrosia elatior)
Assay: Test A preemergence, ragweed
Assay type: in vivo
Settings: 125 g ai/ha, visual rating after approx. 10 d, 0 to 100 scale, 0 no effect, 100 complete control
From the text: as §1

Compound	Plant response rating, Ragweed
O=C(Nc1cccc(F)c1C(F)(F)F)C1C(=O)OCC1c1ccc(F)c(C(F)(F)F)c1 (racemic) [Compound 18]	0

Same assay, conditions: 500 g ai/ha, visual rating after approx. 10 d, 0 to 100 scale, 0 no effect, 100 complete control

Compound	Plant response rating, Ragweed
O=C(Nc1cccc(F)c1C(F)(F)F)C1C(=O)OCC1c1ccc(F)c(C(F)(F)F)c1 (racemic) [Compound 18]	0

Test system: pigweed (Amaranthus retroflexus)
Assay: Test A postemergence, pigweed
Assay type: in vivo
Settings: 125 g ai/ha, visual rating after approx. 10 d, 0 to 100 scale, 0 no effect, 100 complete control
From the text: as §1

Compound	Plant response rating, Pigweed
O=C(Nc1cccc(F)c1C(F)(F)F)C1C(=O)OCC1c1ccc(F)c(C(F)(F)F)c1 (racemic) [Compound 18]	0

Same assay, conditions: 500 g ai/ha, visual rating after approx. 10 d, 0 to 100 scale, 0 no effect, 100 complete control

Compound	Plant response rating, Pigweed
O=C(Nc1cccc(F)c1C(F)(F)F)C1C(=O)OCC1c1ccc(F)c(C(F)(F)F)c1 (racemic) [Compound 18]	0

Test system: blackgrass (Alopecurus myosuroides)
Assay: Test A postemergence, blackgrass
Assay type: in vivo
Settings: 125 g ai/ha, visual rating after approx. 10 d, 0 to 100 scale, 0 no effect, 100 complete control
From the text: as §1

Compound	Plant response rating, Blackgrass
O=C(Nc1cccc(F)c1C(F)(F)F)C1C(=O)OCC1c1ccc(F)c(C(F)(F)F)c1 (racemic) [Compound 18]	0

Same assay, conditions: 500 g ai/ha, visual rating after approx. 10 d, 0 to 100 scale, 0 no effect, 100 complete control

Compound	Plant response rating, Blackgrass
O=C(Nc1cccc(F)c1C(F)(F)F)C1C(=O)OCC1c1ccc(F)c(C(F)(F)F)c1 (racemic) [Compound 18]	0

Test system: sedge, umbrella (small-flower umbrella sedge, Cyperus difformis)
Assay: Test B flooded paddy test, umbrella sedge
Assay type: in vivo
Settings: 500 g ai/ha; applied to paddy water at 2-leaf stage; 13 to 15 d; scale 0 no effect to 100 complete control
Experimental: as §2

Compound	Plant response rating, Flood, Sedge, Umbrella
O=C(Nc1cccc(F)c1C(F)(F)F)C1C(=O)OCC1c1ccc(F)c(C(F)(F)F)c1 (racemic) [Compound 18]	0

Test system: ragweed (common ragweed, Ambrosia elatior)
Assay: Test A postemergence, ragweed
Assay type: in vivo
Settings: 125 g ai/ha, visual rating after approx. 10 d, 0 to 100 scale, 0 no effect, 100 complete control
From the text: as §1

Compound	Plant response rating, Ragweed
O=C(Nc1cccc(F)c1C(F)(F)F)C1C(=O)OCC1c1ccc(F)c(C(F)(F)F)c1 (racemic) [Compound 18]	0

Same assay, conditions: 500 g ai/ha, visual rating after approx. 10 d, 0 to 100 scale, 0 no effect, 100 complete control

Compound	Plant response rating, Ragweed
O=C(Nc1cccc(F)c1C(F)(F)F)C1C(=O)OCC1c1ccc(F)c(C(F)(F)F)c1 (racemic) [Compound 18]	0

Test system: kochia (Kochia scoparia)
Assay: Test A preemergence, kochia
Assay type: in vivo
Settings: 125 g ai/ha, visual rating after approx. 10 d, 0 to 100 scale, 0 no effect, 100 complete control
From the text: as §1

Compound	Plant response rating, Kochia
O=C(Nc1cccc(F)c1C(F)(F)F)C1C(=O)OCC1c1ccc(F)c(C(F)(F)F)c1 (racemic) [Compound 18]	0

Same assay, conditions: 500 g ai/ha, visual rating after approx. 10 d, 0 to 100 scale, 0 no effect, 100 complete control

Compound	Plant response rating, Kochia
O=C(Nc1cccc(F)c1C(F)(F)F)C1C(=O)OCC1c1ccc(F)c(C(F)(F)F)c1 (racemic) [Compound 18]	0

Test system: corn (Zea mays)
Assay: Test A postemergence, corn
Assay type: in vivo
Settings: 125 g ai/ha, visual rating after approx. 10 d, 0 to 100 scale, 0 no effect, 100 complete control
From the text: as §1

Compound	Plant response rating, Corn
O=C(Nc1cccc(F)c1C(F)(F)F)C1C(=O)OCC1c1ccc(F)c(C(F)(F)F)c1 (racemic) [Compound 18]	0

Same assay, conditions: 500 g ai/ha, visual rating after approx. 10 d, 0 to 100 scale, 0 no effect, 100 complete control

Compound	Plant response rating, Corn
O=C(Nc1cccc(F)c1C(F)(F)F)C1C(=O)OCC1c1ccc(F)c(C(F)(F)F)c1 (racemic) [Compound 18]	0
